These results are taken from patent publication US5104859A, “Continuous administration of adenosine to reduce pulmonary vascular resistance” (priority 1990, dated 1992).

The test system of series [1] is atrio-ventricular (A-V) node. The settings on record: through blockage of the A-V node; cited from earlier work.
A further series deals with central hemodynamics. The series is described as follows: Per cent change of hemodynamics: adenosine, SNP and TNG induced controlled hypotension during cerebral aneurysm surgery. The format is in vivo, human. On the procedure: One hour before the operation the patients were premedicated orally with diazepam (10-20 mg.) Atropine (0.5 mg) and droperidol (0.1 mg. per kg.) were given intravenously before induction of anesthesia. Induction was started with thiopental (5 mg. per kg) followed by phenoperidine (1-2 mg), a synthetic opiate with pharmacodymanics resembling fentanyl but with a longer duration of action and 1/10 of its analgesic potency.
Pancuronium bromide (0.1 mg per kg) was given to facilitate endotracheal intubation. Anesthesia was maintained by supplementary doses of phenoperidine and droperidol, as required. […] Phenoperidine was supplemented regularly to prevent the blood pressure from exceeding the preanesthetic level (approx. 1 mg/30-60 min). Controlled hyperventilation was employed with a humidified gas mixture of 60% N2 O in oxygen to maintain PaCO2 values at approximately 30 mmHg (±1.5/SEM). Mannitol (1-1.5 g. per kg) was given routinely at the start of the operation (e.g., 1-2 hours prior to the controlled hypotension). The patients were operated on in the horizontal supine position.
A 1.2-mm plastic cannula was introduced into the left radial artery to monitor systemic arterial blood pressure (MABP) and collect arterial blood. A balloon-tipped, flow-directed, quadruple lumen Swan-Ganz catheter (Model 93A-831-7.5 F, VIP) was inserted percutaneously via the left basilic vein, and its correct position in the pulmonary artery was determined by pressure tracings. The catheter was used for the monitoring of mean right atrial pressure (RAP), mean pulmonary artery pressure (PAP), and mean pulmonary capillary wedge pressure (PCWP) for the determination of cardiac output and collection of mixed venous blood and for the infusion of adenosine. Another plastic cannula was introduced percutaneously, in a retrograde direction, into the right jugular bulb for the collection of blood. The correct position was verified by x-ray.
The ECG was monitored with a standard chest (V5) lead. Heart rate was determined from the R-R interval. Blood pressures were measured by transducers placed at the midthoracic level. Cardiac output (QT) was determined in triplicate according to the thermodilution technique with a cardiac output computer (Edwards Lab, model 9510). Isotonic glucose, 10 ml at 1° C., was used as a thermal indicator. The ECG, heart rate, blood pressures, and thermodilution curves were recorded on a Grass® polygraph.
(§1) The infusion was started at a rate of 0.01 mg. per kg. per minute, which was doubled at 15 second intervals until the desired MABP level of 40-50 mmHg was reached. […] Serum creatinine was determined before and on two consecutive days after operation. The standard ECG was recorded the day before and the day after operation.
Subsequent to the tests described above, a 20 mM solution of adenosine in isotonic saline was administered to 50 surgical patients employing techniques similar to those described, except that pretreatment with dipyridamole was omitted.

Series [2] is described as follows: Purine levels in arterial plasma before, during and after adenosine-induced controlled hypotension (HPLC). The settings on record: in vivo. On the procedure: Blood gases were measured with appropriate electrodes for pH, PCO2, and PO2 (Radiometer, Copenhagen). The hemoglobin concentration was determined spectrophotometrically. Samples for the determination of adenosine and its metabolites were collected as described by Sollevi et al., Acta Physiol. Scand., 120: 171-76 (1984). Adenosine and inosine were purified and analyzed by HPLC as described by Fredholm and Sollevi., J. Physiol. (London), 313: 351-67 (1981). Hypoxanthine, xanthine, and uric acid were analyzed by HPLC according to the method of Schweinsberg and Loo., J. Chromatogr., 181: 103-7 (1980). Arterial levels of dipyridamole were determined by HPLC. J. Chromatogr., 162: 98-103 (1979). Blood lactate was measured according to Tfelt-Hansen and Siggard-Andersen. Scand. Clin. Lab. Invest., 27:15-19 (1971).
Measurements and blood samplings were performed immediately before hypotension, as late as possible during hypotension (1-5 min before terminating the infusion) and approximately 30 min after the hypotensive period.
Dipyridamole (5 mg. per ml) was infused iv (0.3-0.4 mg. per kg. over a period of 5-10 min) approximately 20 minutes prior to the induction of controlled hypotension. […] (See Pedersen, J. Chromatogr., 162: 98-103 (1979).
as §1
The statistical significance (control 1 vs. adenosine and control 1 vs. control 2) was determined by Student's t test for paired data. A P value of <0.05 was regarded as significant.
The purine levels of nine of the patients were determined prior to, during and after adenosine-induced controlled hypotension.

The test system of the next series is platelets. The series is described as follows: Platelet protection during cardiopulmonary bypass. Format: in vivo, human. Here is the method:
Twenty-five patients scheduled for coronary artery bypass surgery were randomly assigned to two groups--one with adenosine infusion (n=13) and the other with placebo infusion (n=12).
Intravenous anesthesia was used, either high-dose fentanyl (100-150 ug/kg) or balanced anesthesia (thiopental, fentanyl, diazepam and N2 O/O2.
During cardiopulmonary bypass (CPB), mean arterial blood pressure (MABP) above 70 mmHg was treated with the vasodilator sodium nitroprusside (SNP), except in the final phase or rewarming. CPB was performed with SARN roller pump and a Shiley oxygenator (100A) primed with 2000 ml crystalloid solution (75 mg heparin). The perfusion rate was kept at approximately […] body surface. Moderate hypothermia (25° C.) was induced. Cardioplegia was obtained with Ringer's solution (with added potassium up to 20 mM/1). Heparin (3 mg/kg) was administered as a bolus injection before cannulation. The heparin effect was controlled by measurements of activated clotting time. (Hemocron® Int. Technidyne Corp, USA). […] At the termination of CPB, the heparin effect was antagonized with protamine (c. 1.3 mg/mg heparin). ACT was checked 10-20 min after the protamine injection. ACT values 120 sec were considered satisfactory.
Platelet count (Linson 431 A cell counter) and hematocrit were determined in arterial samples before anesthesia, after thoracotomy, during CPB at 10, 20, 40, 60, 80 and 100 min, 30 min after CPB and on the postoperative day. Platelet counts were expressed in percentage of preanesthesia levels and were corrected for hemodilution. MABP was monitored continuously via a catheter introduced in the radial artery. All patients received hypertonic mannitol (1-1.5 g/kg) during CPB and urine production was calculated as ml/.min of CPB (Table VI). […]
Statistical significance (controls v. adenosine group) was determinted with Student's t-test for unpaired data. For significance within the groups the Wilcoxon Rank Sum test was used. p […] 0.05 was regarded as significant.

Molecules are shown by their SMILES.

Regarding `Nc1ncnc2c1ncn2[C@@H]1O[C@H](CO)[C@@H](O)[C@H]1O` [adenosine], the “heart block” value in series [1] is “produce heart block”. Also, in the series on central hemodynamics (Table IV, n = 10), the “HR, change from control” value was “+9 Per Cent from Control”; the “MABP, change from control” value is -43 Per Cent from Control; the “PAP, change from control” value is listed as “+15 Per Cent from Control”; the “PCWP, change from control” value is given as “+14 Per Cent from Control”. Further, in the series with central hemodynamics (Table IV, n = 10), the “PVR, change from control” value is -15 Per Cent from Control; the “QT (cardiac output), change from control” value was “+44 Per Cent from Control”; the “RAP, change from control” value is listed as “+6 Per Cent from Control”; the “SVR, change from control” value is -61 Per Cent from Control. The “oxygen tissue pressures vs nitroprusside” value in the series on central hemodynamics (controlled hypotension) is recorded as “better preserves oxygen tissue pressures”. For the same compound, the concentration in series [2] (human, iv) was 2450 ± 650 nM. Besides, in series [2], the “time for arterial adenosine levels to return to control values after termination of infusion” value fell in the range of 3 to 9 min. The “intergroup difference in platelet counts” value in the series with platelets (60 min to end of CPB and 30 min after CPB) is recorded as “significant intergroup difference in platelet counts”. For the same compound, the “infusion rate effective in protecting platelets” value with platelets (cardiopulmonary bypass) is “about 100 ug/kg/min”. Besides, the “Platelet Count; % of Awake Count” value in the series with platelets (during CPB, 10 minutes) is recorded as 96 % of Awake Count. Further, in the series on platelets (during CPB, 20 minutes), the “Platelet Count; % of Awake Count” value is 87 % of Awake Count. Besides, the “Platelet Count; % of Awake Count” value in the series on platelets (during CPB, 40 minutes) is 85 % of Awake Count. The “Platelet Count; % of Awake Count” value with platelets (during CPB, 60 minutes) was 91 % of Awake Count. In addition, in the series on platelets (during CPB, 80 minutes), the “Platelet Count; % of Awake Count” value is 100 % of Awake Count. Further, the “Platelet Count; % of Awake Count” value in the series on platelets (during CPB, 100 minutes) was 97 % of Awake Count. Moreover, in the series on platelets (during adenosine infusion), the “initial platelet reduction” value is “small, and was significant only at 20 and 40 minutes on CPB”. Moreover, the “Platelet Count; % of Awake Count” value with platelets (post CPB, 30 minutes) is 88 % of Awake Count. Further, the “Platelet Count; % of Awake Count” value in the series on platelets (post CPB, 24 hours) is listed as 60 % of Awake Count.
